The source of these data is patent US20050032124A1, “Identification of genotype-selective agents for treating Huntington's disease” (priority 2003, published 2005).

Each structure is given as a SMILES string. Converted amounts (≈) assume the structure as drawn. Read-outs that look alike come from different tables or passages of the source.

Holding throughout (type): cell-based, human
Assay [1] has as its system TIP5/TERT/LT/ST/RAS^V12 cells. Kind of assay: Calcein AM viability assay, dilution-series retest. The note with it: Homo sapiens, 48 h, read-out: IC50, TIP5 TERT/LT/ST/Ras^V12. The source says:
In a third series, cell lines derived from independently prepared human TIP5 foreskin fibroblasts created by introducing cDNA constructs encoding hTERT, LT, ST and RASV12 (Lessnick et al., 2002, Cancer Cell 1, 393-401) were used. These cell lines were called, respectively: TIP5/TERT, TIP5/TERT/LT, TIP5/TERT/LT/ST, and TIP5/TERT/LT/ST/RAS^V12. In a fourth series, cell lines derived from TIP5 fibroblasts created by introducing cDNA constructs encoding hTERT, E6, E7, ST and RAS^V12 were used. These cell lines were named, respectively: TIP5/TERT/E6, TIP5/TERT/E6/E7, TIP5/TERT/E6/E7/ST, and TIP5/TERT/E6/E7/ST/RAS^V12. In this series, HPV E6 and E7, which inactivate p53 and RB, respectively, serve a similar function as LT in the previous series. However, by using HPV E6 and E7, Applicants were able to observe the effects of inactivating, separately and independently, p53 and RB. Results of a large-scale screen for compounds that display selective killing of these engineered tumorigenic cell lines are described in the examples that follow.
Calcein acetoxylmethyl ester (AM) is a cell membrane-permeable, non-fluorescent compound that is cleaved by intracellular esterases to form the anionic, cell-impermeable, fluorescent compound calcein. Viable cells are stained by calcein because of the presence of intracellular esterases and because the intact plasma membrane prevents fluorescent calcein from leaking out of cells (Wang et al., 1993, supra). Cells were seeded in 384-well plates using a Zymark Sciclone ALH, treated with each compound in triplicate at 4 μg/mL in the primary screen for two days, washed with phosphate-buffered saline on a Packard Minitrak with a 384-well washer and incubated for four hours with 0.7 μg/mL calcein (Molecular Probes). Total fluorescence intensity in each well was recorded on a Packard Fusion platereader, and converted to a percent inhibition of signal by subtracting the instrument background and dividing by the average signal obtained when cells were not treated with any compound.
Replica daughter plates were prepared with a Zymark Sciclone ALH and integrated Twister II by diluting stock plates 50 fold in medium lacking serum and pen/strep to obtain a compound concentration in daughter plates of 80 μg/ml with 2% DMSO. Assay plates were prepared by seeding cells in black, clear bottom 384-well plates in columns 1-23 (6000 cells/well in 57 μl) using a syringe bulk dispenser. Columns 3-22 were treated with compounds from a daughter library plate by transferring 3 μl from the daughter library plate using 384-position fixed cannula array. The final compound concentrations in assay plates were thus 4 μg/ml. The assay plates were incubated for 48 hours at 37° C. in humidified incubator containing 5% CO2. Plate processing for the calcein AM viability assay was performed using an integrated Minitrak/Sidetrak robotic system from Packard Bioscience (Perkin Elmer). Assay plates were washed with phosphate buffered saline, and 20 μl of calcein AM (0.7 μg/ml) per well was added. Plates were incubated at room temperature for 4 hours. Fluorescence intensity was determined using a Fusion platereader with filters centered on an excitation of 485 nm and an emission of 535 nm.
Compounds to be retested were purchased from manufacturers. Stocks were prepared in DMSO at a concentration of 1 mg/ml in 384-well polypropylene plates with a 16-point, two-fold dilution dose curve of each compound in a column, in duplicates. Column 1-2 and 23-24 were left empty for controls. Daughter retest plates were prepared from stock retest plate by diluting 66.6 fold in DMEM in 384-well deep-deep well plates (4.5 μl transfer into 300 μl). Cells were seeded at a density of 6000 per well in 40 μl, and 20 μl was added from a daughter retest plate. The plates were incubated for two days at 37° C. with 5% CO2.
Mean RFU (relative fluorescence units) for untreated cells was calculated by averaging columns 1, 2, and 23 (wells with cells but lacking compounds). […]

Assay [2] deals with BJ-TERT/LT/ST/RAS^V12 cells. Kind of assay: Annexin V-FITC apoptosis assay. The note with it: untreated 6%. The protocol:
BJ-TERT/LT/ST/RAS^V12 cells were seeded at 1×10^6 cells per dish in 100 mm dishes and allowed to grow overnight. Cells were treated with erastin (5 or 10 μg/ml) for 6, 8 or 11 h. A camptothecin-treated (0.4 μg/ml) control was maintained, treated at the time of seeding for 20 hours. After the treatment, cells were harvested with trypsin/EDTA and washed once with fresh medium containing serum and then twice with phosphate buffered saline. Cells were resuspended in 1× binding buffer (BD Pharmingen) at a concentration of 1×10^6 cells/mi. 100 μl (1×10^5 cells) was incubated with 5 μl of Annexin V- FITC (BD Pharmingen) and propidium iodiode (BD Pharmingen) for 15 minutes in the dark at room temperature. Then 400 μl of the 1× binding buffer was added and the cells analyzed by flow cytometry (Becton-Dickinson). Data were acquired and analyzed using Cellquest software.

For a further assay, the system named is reactive oxygen species. Kind of assay: ROS analysis, flow cytometry using H2DCF-DA. Conditions: engineered cells. The source says: 2′7′ dichlorodihydrofluorescein diacetate (H2DCF-DA) is a non-fluorescent cell permeable compound. The endogenous esterase enzyme inside the cell cleaves the diacetate part, and it can no longer pass out of the cell. Thus it accumulates in the cell. Then H2DCF reacts with ROS to form fluorescent dichlorofluorescene (DCF) which can be measured by flow cytometry in FL1 channel. • 1. Seed cells at 3×10^5 cells per dish in 60 mm dishes and allow to grow overnight. • 2. Treat with the test compound for different period of time (1-10 hr). • 3. Maintain one dish for untreated cells, compound treated cell and positive control dish (hydrogen peroxide treated) for each time point. • 4. Incubate the cells with 10 μM of H2DCF-DA for 10 minutes at 37° C. • 5. For positive control cells, after 5 minutes of H2DCF-DA loading, add 500 μM of hydrogen peroxide and incubate for 5 minutes further. • 6. Harvest the cell by trypsinization. • 7. Wash with cold PBS-twice. • 8. Resuspend the pellet in 100 μl of PBS and transfer into 5 ml FACS tube. • 9. Add 5 μl of propidium iodide (50 μg/ml) and incubate for 10 minutes on ice in dark. • 10. Add 400 μl of PBS and analyze by flow cytometry (Becton-Dickinson). • 11. Acquire the data and analyze using CellQuest software program. • 12. Take only propidium iodiode negative cells (viable cells) for the analysis for DCF staining using the FLI channel, PI in FL3 channel, plot a quadrant chart.

The mark [3] stands for this setting: TIP5 TERT/LT/ST/Ras^V12 cells, 16-point two-fold dilution, two days.

`COc1ccc(C[C@H]2C(=O)N[C@@H](C)C(=O)N(C)[C@@H]3C(=O)N(C)[C@@H](Cc4ccc(O)c(c4)Oc4ccc(cc4)[C@@H]3O)C(=O)N[C@H](C)C(=O)N[C@@H](C)C(=O)N2C)cc1` [Bouvardin]: the IC50 in assay [1] is 0.039 µg/mL (≈ 0.0505 µM). For `CC[C@@]1(O)C(=O)OCc2c1cc1n(c2=O)Cc2cc3ccccc3nc2-1` [Camptothecin], the “percentage of cells in the M1 region (Annexin V staining)” value in assay [2] (camptothecin-treated (1 μM)) worked out at 38%. Further, the IC50 in assay [1] (setting [3]) is 0.156 µg/mL (≈ 0.448 µM). `COc1cccc2c1C(=O)c1c(O)c3c(c(O)c1C2=O)C[C@@](O)(C(C)=O)C[C@@H]3O[C@H]1C[C@H](N)[C@H](O)[C@H](C)O1` [Daunorubicin]: the “formation of reactive oxygen species (ROS)” value (“formation” below) in the assay on reactive oxygen species is “did not observe the formation of ROS”. In assay [1], the IC50 was 0.825 µg/mL (≈ 1.56 µM). Regarding `COc1cccc2c1C(=O)c1c(O)c3c(c(O)c1C2=O)C[C@@](O)(C(=O)CO)C[C@@H]3O[C@H]1C[C@H](N)[C@H](O)[C@H](C)O1` [Doxorubicin], the “formation” value in the assay on reactive oxygen species is “did not observe the formation of ROS”. For the same compound, the IC50 in assay [1] (setting [3]) was 0.625 µg/mL (≈ 1.15 µM).

For the compound `CS[C@H]1SC[C@H]2C(=O)N(C)[C@@H](C(C)C)C(=O)OC[C@@H](NC(=O)c3cnc4ccccc4n3)C(=O)N[C@@H](C)C(=O)N(C)[C@@H]1C(=O)N(C)[C@@H](C(C)C)C(=O)OC[C@@H](NC(=O)c1cnc3ccccc3n1)C(=O)N[C@@H](C)C(=O)N2C` [Echinomycin], the IC50 in assay [1] was 0.0024 µg/mL (≈ 0.00218 µM). `CCOc1ccccc1-n1c(C(C)N2CCN(C(=O)COc3ccc(Cl)cc3)CC2)nc2ccccc2c1=O` (stereo not shown) [Erastin]: the “percentage of cells in the M1 region (Annexin V staining)” value in assay [2] (erastin-treated (9 μM)) was found to be 6%. In addition, the IC50 in assay [1] (setting [3]) was 2.5 µg/mL (≈ 4.57 µM). Turning to `O=C1c2c(O)ccc(O)c2C(=O)c2c(NCCNCCO)ccc(NCCNCCO)c21` [Mitoxantrone], the “formation” value in the assay on reactive oxygen species is listed as “did not observe the formation of ROS”. Moreover, the IC50 in assay [1] (setting [3]) is 1.25 µg/mL (≈ 2.81 µM). Take `NC(=O)c1cn([C@@H]2O[C@H](CO)[C@@H](O)[C@H]2O)c2ncnc(N)c12` [Sangivamycin]: the IC50 in assay [1] was 0.078 µg/mL (≈ 0.252 µM).
